Measurements taken from the NIST ThermoML archive (doi:10.1016/j.fluid.2006.08.004).
Numbers after ± are expanded uncertainties.

Columns and labels:
[1] = refractive index (Na D-line) (dimensionless); details: 298.15 K; 101.33 kPa; Liquid; Standard Abbe refractometry
[2] = Liquid; for mass density: 298.15 K, 101.33 kPa; for Normal boiling temperature: Ebulliometric method (Recirculating still)

| SMILES | refractive index [1] | mass density [2] [kg/m3] | Normal boiling temperature [2] [°C] |
| --- | --- | --- | --- |
| CC(C)CC(C)(C)C [2,2,4-trimethylpentane] | 1.38887 ± 0.00068 | 687.72 ± 0.65 | 99.18 ± 0.01 |
| CC(C)OC(C)C [diisopropyl ether] | 1.36512 ± 0.0007 | 718.37 ± 1.2 | 68.38 ± 0.1 |
| CCO [ethanol] | 1.35926 ± 0.00068 | 785.09 ± 0.25 | 78.29 ± 0.01 |
